Among the data in patent publication US8877707B2, “Inhibitors of HCV NS5A” (Presidio Pharmaceuticals, Inc., priority 2010, dated 2014) are EC50 values, retold here.

For the experiment, the system named is HCV genotype 1b replicon in Huh 7 cells. Nature of the experiment: HCV replicon assay (1b_Huh-Luc/Neo-ET cell line, luciferase readout). Type of experiment: cell-based. As to conditions: Hepatitis C virus; Table 1; genotype 1b replicon, Huh 7 cells, 72 h, luciferase; read-out: Inhibition of HCV genotype 1b. An outline of the steps: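 Replicon level was read as luciferase signal after 72 h compound exposure, triplicate wells, starting the day after cells were plated. Cell line: 1b_Huh-Luc/Neo-ET. Values normalised to control as percent, and EC50 fitted with a variable-slope sigmoid; determinations repeated.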
(In antiviral work, replicon cells carry a viral genome segment that copies itself.)

Turning to `COC(=O)N[C@H](C(=O)N1CCC[C@H]1c1ncc(-c2ccc3nc(-c4ccc(-c5cnc([C@@H]6CCCN6C(=O)[C@H](NC(=O)OC)c6ccccc6)[nH]5)cc4F)ccc3c2)[nH]1)C1CCOCC1` [compound 134], the EC50 is < 1 nM.

Turning to `COC(=O)N[C@H](C(=O)N1CCC[C@H]1c1ncc(-c2ccc3nc(-c4ccc(-c5cnc([C@@H]6CCCN6C(=O)[C@H](NC(=O)OC(C)(C)C)c6ccccc6)[nH]5)cc4F)ccc3c2)[nH]1)C1CCOCC1` [compound 135], the EC50 was < 1 nM.

Take `COC(=O)N[C@H](C(=O)N1CCC[C@H]1c1ncc(-c2ccc(-c3ccc4cc(-c5cnc([C@@H]6CCCN6C(=O)[C@H](NC(=O)OC(C)(C)C)c6ccccc6)[nH]5)ccc4n3)c(F)c2)[nH]1)C1CCOCC1` [compound 136]: the EC50 was < 1 nM.

Regarding `COC(=O)N[C@H](C(=O)N1CCOC[C@H]1c1ncc(-c2ccc(-c3ccc4cc(-c5cnc([C@@H]6CCCN6C(=O)[C@H](NC(=O)OC)c6ccccc6)[nH]5)ccc4c3)cc2)[nH]1)C(C)C` [compound 137], the EC50 was < 1 nM.

As for `COC(=O)N[C@H](C(=O)N1CCOC[C@H]1c1ncc(-c2ccc3cc(-c4ccc(-c5cnc([C@@H]6CCCN6C(=O)[C@H](NC(=O)OC)c6ccccc6)[nH]5)cc4)ccc3c2)[nH]1)C(C)C` [compound 138], the EC50 was < 1 nM.

Regarding `COC(=O)N[C@H](C(=O)N1CCC[C@H]1c1ncc(-c2ccc3cc(-c4ccc(-c5cnc([C@@H]6COCCN6C(=O)[C@@H](NC(=O)OC)C(C)C)[nH]5)cc4)ccc3c2)[nH]1)C(C)C` [compound 139], the EC50 was < 1 nM.

On to `COC(=O)N[C@H](C(=O)N1CCC[C@H]1c1ncc(-c2ccc(-c3ccc4cc(-c5cnc([C@@H]6COCCN6C(=O)[C@@H](NC(=O)OC)C(C)C)[nH]5)ccc4c3)cc2)[nH]1)C(C)C` [compound 140], for which the EC50 is < 1 nM.

For `COC(=O)N[C@H](C(=O)N1CCC[C@H]1c1ncc(-c2ccc(-c3ccc4cc(-c5cnc([C@@H]6CCCN6C(=O)[C@@H](NC(=O)OC)C6CCOCC6)[nH]5)ccc4c3)c(F)c2)[nH]1)C1CCOCC1` [compound 141], the EC50 is < 1 nM.

For `CC[C@@H](C)[C@H](NC(=O)OC)C(=O)N1CCC[C@H]1c1ncc(-c2ccc(-c3ccc4cc(-c5cnc([C@@H]6CCCN6C(=O)[C@@H](NC(=O)OC)[C@H](C)CC)[nH]5)ccc4c3)cc2)[nH]1` [compound 142], the EC50 was < 1 nM.

On to `COC(=O)N[C@H](C(=O)N1CCC[C@H]1c1ncc(-c2ccc(-c3ccc4cc(-c5cnc([C@@H]6CCCN6C(=O)[C@@H](NC(=O)OC)C6CC6)[nH]5)ccc4c3)cc2)[nH]1)C1CC1` [compound 143], for which the EC50 was < 1 nM.

In the case of `CNC(=O)N[C@@H](C(=O)N1CCC[C@H]1c1ncc(-c2ccc(-c3cc4ccc(-c5cnc([C@@H]6CCCN6C(=O)[C@@H](NC(=O)OC)C6CCOCC6)[nH]5)cc4cn3)cc2)[nH]1)c1ccccc1` [compound 144], the EC50 is < 1 nM.

With `COC(=O)N[C@H](C(=O)N1CCC[C@H]1c1ncc(-c2ccc3cc(-c4ccc(-c5cnc([C@@H]6CCCN6C(=O)[C@H](NC(=O)NC6CC6)c6ccccc6)[nH]5)cc4)ncc3c2)[nH]1)C1CCOCC1` [compound 145], the EC50 is < 1 nM.

As to `COC(=O)N[C@H](C(=O)N1CCC[C@H]1c1ncc(-c2ccc3nc(-c4ccc(-c5cnc([C@@H]6C[C@@H](O)CN6C(=O)[C@@H](NC(=O)OC)C(C)C)[nH]5)cc4)ccc3c2)[nH]1)C(C)C` [compound 146], the EC50 is < 1 nM.

For `COC(=O)N[C@H](C(=O)N1C[C@H](O)C[C@H]1c1ncc(-c2ccc(-c3ccc4cc(-c5cnc([C@@H]6CCCN6C(=O)[C@@H](NC(=O)OC)C6CCOCC6)[nH]5)ccc4n3)cc2)[nH]1)C(C)C` [compound 147], the EC50 was < 1 nM.

For `COC(=O)N[C@H](C(=O)N1C[C@H](O)C[C@H]1c1ncc(-c2ccc(-c3ccc4cc(-c5cnc([C@@H]6CCCN6C(=O)[C@H](NC(=O)OC)c6ccccc6)[nH]5)ccc4n3)cc2)[nH]1)C(C)C` [compound 148], the EC50 was < 1 nM.

For the compound `COC(=O)N[C@H](C(=O)N1C[C@H](O)C[C@H]1c1ncc(-c2ccc(-c3ccc4cc(-c5cnc([C@@H]6CCCN6C(=O)[C@H](NC(=O)OC6CCOCC6)c6ccccc6)[nH]5)ccc4n3)cc2)[nH]1)C(C)C` [compound 149], the EC50 is < 1 nM.

For `COC(=O)N[C@H](C(=O)N1CCC[C@H]1c1ncc(-c2ccc(-c3cc4ccc(-c5cnc([C@@H]6CCCN6C(=O)[C@@H](NC(=O)OC)C(C)C)[nH]5)cc4cn3)c(F)c2)[nH]1)C(C)C` [compound 150], the EC50 was < 1 nM.

In the case of `COC(=O)N[C@H](C(=O)N1CCC[C@H]1c1ncc(-c2ccc3cc(-c4ccc(-c5cnc([C@@H]6CCCN6C(=O)[C@@H](NC(=O)OC)C6CCOCC6)[nH]5)cc4F)ncc3c2)[nH]1)C(C)C` [compound 151], the EC50 is < 1 nM.

`COC(=O)N[C@H](C(=O)N1CCC[C@H]1c1ncc(-c2ccc3cc(-c4ccc(-c5cnc([C@@H]6CCCN6C(=O)[C@H](NC(=O)OC)c6ccccc6)[nH]5)cc4F)ncc3c2)[nH]1)C(C)C` [compound 152]: the EC50 is < 1 nM.

Take `COC(=O)N[C@H](C(=O)N1CCC[C@H]1c1ncc(-c2ccc3cc(-c4ccc(-c5cnc([C@@H]6CCCN6C(=O)[C@H](NC(=O)OC6CCOCC6)c6ccccc6)[nH]5)cc4F)ncc3c2)[nH]1)C(C)C` [compound 153]: the EC50 is < 1 nM.

Regarding `COC(=O)N[C@H](C(=O)N1CCC[C@H]1c1ncc(-c2ccc3cc(-c4ccc(-c5cnc([C@@H]6CCCN6C(=O)[C@H](NC(=O)OC6CCOCC6)c6ccccc6)[nH]5)c(F)c4)ncc3c2)[nH]1)C1CCOCC1` [compound 154], the EC50 was < 1 nM.

For the compound `COC(=O)N[C@H](C(=O)N1CCC[C@H]1c1ncc(-c2ccc3cc(-c4ccc(-c5cnc([C@@H]6CCCN6C(=O)[C@H](NC(=O)OC)c6ccccc6)[nH]5)c(F)c4)ncc3c2)[nH]1)C(C)C` [compound 155], the EC50 was < 1 nM.

For `COC(=O)N[C@H](C(=O)N1CCC[C@H]1c1ncc(-c2ccc(-c3cc4ccc(-c5cnc([C@@H]6CCCN6C(=O)[C@H](NC(=O)OC6CCOCC6)c6ccccc6)[nH]5)cc4cn3)cc2F)[nH]1)C(C)C` [compound 156], the EC50 was < 1 nM.

As to `[2H]C([2H])([2H])C([2H])(C([2H])([2H])[2H])[C@@]([2H])(NC(=O)OC)C(=O)N1CCC[C@H]1c1ncc(-c2ccc3nc(-c4ccc(-c5cnc([C@@H]6CCCN6C(=O)[C@@H](NC(=O)OC)C(C)C)[nH]5)cc4F)ccc3c2)[nH]1` [compound 157], the EC50 is < 1 nM.

Take `[2H]C([2H])([2H])C([2H])(C([2H])([2H])[2H])[C@@]([2H])(NC(=O)OC)C(=O)N1CCC[C@H]1c1ncc(-c2ccc3nc(-c4ccc(-c5cnc([C@@H]6CCCN6C(=O)[C@@H](NC(=O)OC)C6CCOCC6)[nH]5)cc4F)ccc3c2)[nH]1` [compound 158]: the EC50 was < 1 nM.

As for `C=CC[C@H](NC(=O)OC)C(=O)N1CCC[C@H]1c1ncc(-c2ccc3nc(-c4ccc(-c5cnc([C@@H]6CCCN6C(=O)[C@@H](NC(=O)OC)C(C)C)[nH]5)cc4F)ccc3c2)[nH]1` [compound 159], the EC50 was < 1 nM.

Take `C=CC[C@H](NC(=O)OC)C(=O)N1CCC[C@H]1c1ncc(-c2ccc3nc(-c4ccc(-c5cnc([C@@H]6CCCN6C(=O)[C@@H](NC(=O)OC)C6CCOCC6)[nH]5)cc4F)ccc3c2)[nH]1` [compound 160]: the EC50 is < 1 nM.

`C#CC[C@H](NC(=O)OC)C(=O)N1CCC[C@H]1c1ncc(-c2ccc3nc(-c4ccc(-c5cnc([C@@H]6CCCN6C(=O)[C@@H](NC(=O)OC)C(C)C)[nH]5)cc4F)ccc3c2)[nH]1` [compound 161]: the EC50 is < 1 nM.

Regarding `C#CC[C@H](NC(=O)OC)C(=O)N1CCC[C@H]1c1ncc(-c2ccc3nc(-c4ccc(-c5cnc([C@@H]6CCCN6C(=O)[C@@H](NC(=O)OC)C6CCOCC6)[nH]5)cc4F)ccc3c2)[nH]1` [compound 162], the EC50 is < 1 nM.

For the compound `COC(=O)N[C@H](C(=O)N1CCC[C@H]1c1ncc(-c2ccc(-c3ccc4cc(-c5cnc([C@@H]6CCCN6C(=O)[C@H](NC(=O)OC)C6C=CCC=C6)[nH]5)ccc4n3)c(F)c2)[nH]1)C1CCOCC1` [compound 163], the EC50 is < 1 nM.

For the compound `COC(=O)NC(C(=O)N1CCC[C@H]1c1ncc(-c2ccc3nc(-c4ccc(-c5cnc([C@@H]6CCCN6C(=O)[C@@H](NC(=O)OC)C6CCOCC6)[nH]5)cc4F)ccc3c2)[nH]1)C1CCOC1` (some centres unmarked) [compound 164], the EC50 was < 1 nM.

Regarding `COC(=O)N[C@H](C(=O)N1CCC[C@H]1c1ncc(-c2ccc3cc(-c4ccc(-c5cnc([C@@H]6CCCN6C(=O)[C@H](NC(=O)OC)c6ccccc6)[nH]5)cc4F)ncc3c2)[nH]1)C1CCOCC1` [compound 165], the EC50 is < 1 nM.

With `COC(=O)N[C@H](C(=O)N1CCC[C@H]1c1ncc(-c2ccc(-c3cc4ccc(-c5cnc([C@@H]6CCCN6C(=O)[C@@H](NC(=O)OC)C6CCOCC6)[nH]5)cc4cn3)c(F)c2)[nH]1)C(C)C` [compound 166], the EC50 was < 1 nM.

Regarding `COC(=O)N[C@H](C(=O)N1CCC[C@H]1c1ncc(-c2ccc(-c3cc4ccc(-c5cnc([C@@H]6CCCN6C(=O)[C@H](NC(=O)OC)c6ccccc6)[nH]5)cc4cn3)c(F)c2)[nH]1)C(C)C` [compound 167], the EC50 is < 1 nM.

For the compound `COC(=O)N[C@H](C(=O)N1CCOC[C@H]1c1ncc(-c2ccc3cc(-c4ccc(-c5cnc([C@@H]6COCCN6C(=O)[C@H](NC(=O)OC)c6ccccc6)[nH]5)cc4)ccc3c2)[nH]1)C(C)C` [compound 168], the EC50 is < 1 nM.

Consider `COC(=O)N[C@H](C(=O)N1CCC[C@H]1c1ncc(-c2ccc3cc(-c4ccc(-c5cnc([C@@H]6COCCN6C(=O)[C@H](NC(=O)OC)c6ccccc6)[nH]5)cc4)ccc3c2)[nH]1)C1CCOCC1` [compound 169], for which the EC50 is < 1 nM.

With `COC(=O)N[C@H](C(=O)N1CCOC[C@H]1c1ncc(-c2ccc(-c3ccc4cc(-c5cnc([C@@H]6COCCN6C(=O)[C@@H](NC(=O)OC)C(C)C)[nH]5)ccc4c3)cc2)[nH]1)C(C)C` [compound 170], the EC50 is < 1 nM.

With `CCC(CC)[C@H](NC(=O)OC)C(=O)N1CCC[C@H]1c1ncc(-c2ccc(-c3ccc4cc(-c5cnc([C@@H]6CCCN6C(=O)[C@@H](NC(=O)OC)C(CC)CC)[nH]5)ccc4c3)cc2)[nH]1` [compound 171], the EC50 was < 1 nM.
